Assay results taken from patent US20260232767A1, “INTERLEUKIN-23 RECEPTOR ANTAGONIST PEPTIDES FOR USE IN THE TREATMENT OF PSORIASIS” (Janssen Pharmaceutica NV, priority 2023, published 2026).

System: subjects with moderate-to-severe plaque psoriasis
Experiment: Safety, adverse events, Example 2 through Week 56
Type: in vivo, human
Details: 25 mg QD, through Week 56
Text: The LTE safety analysis was based on randomized participants in Example who entered the present long-term extension study and received at least one dose of study intervention (including a partial dose) during the study period.

SMILES: CC(=O)NCCCC[C@@H]1NC(=O)[C@H](Cc2c[nH]c3c(C)cccc23)NC(=O)[C@H]([C@@H](C)O)NC(=O)[C@H](CC(N)=O)NC(=O)[C@@H](NC(C)=O)C(C)(C)SSC(C)(C)[C@@H](C(=O)N[C@@H](Cc2ccc(OCCN)cc2)C(=O)N[C@@H](Cc2ccc3ccccc3c2)C(=O)NC2(C(=O)N[C@@H](CCC(=O)O)C(=O)N[C@@H](CC(N)=O)C(=O)N[C@@H](Cc3cccnc3)C(=O)N(C)CC(N)=O)CCOCC2)NC1=O [IL-23 receptor antagonist peptide, Ac-[Pen]*-N-T-[W(7-Me)]-[Lys(Ac)]-[Pen]*-Phe[4-(2-aminoethoxy)]-[2-Nal]-[THP]-E-N-[3-Pal]-Sarc-NH2 (*[Pen]-[Pen]* formdisulfidebond)]
- Cardiac disorders: number of subjects: 0
- Chills: number of subjects: 0
- Cholelithiasis: number of subjects: 0
- Chronic obstructive pulmonary disease: number of subjects: 0
- Coronary artery disease: number of subjects: 0
- Cough: % of subjects: (2.3%)
- Cough: number of subjects: 1
- Decreased appetite: % of subjects: (2.3%)
- Decreased appetite: number of subjects: 1
- Depression: number of subjects: 0
- Dermal cyst: % of subjects: (2.3%)
- Dermal cyst: number of subjects: 1
- Dermatitis acneiform: number of subjects: 0
- Dermatitis contact: number of subjects: 0
- Diabetes mellitus: % of subjects: (2.3%)
- Diabetes mellitus: number of subjects: 1
- Diffuse alopecia: % of subjects: (2.3%)
- Diffuse alopecia: number of subjects: 1
- Dysuria: number of subjects: 0
- Ear and labyrinth disorders: % of subjects: (2.3%)
- Ear and labyrinth disorders: number of subjects: 1
- Endocrine disorders: number of subjects: 0
- Eye disorders: number of subjects: 0
- Eyelid skin dryness: number of subjects: 0
- Fatigue: number of subjects: 0
- General disorders and administration site conditions: % of subjects: (2.3%)
- General disorders and administration site conditions: number of subjects: 1
- Goiter: number of subjects: 0
- Haemochromatosis: number of subjects: 0
- Hand dermatitis: number of subjects: 0
- Hematuria: number of subjects: 0
- Hepatobiliary disorders: % of subjects: (2.3%)
- Hepatobiliary disorders: number of subjects: 1
- Hypercholesterolemia: number of subjects: 0
- Hyperglycemia: number of subjects: 0
- Hyperlipidemia: number of subjects: 0
- Hypertension: number of subjects: 0
- Hypertransaminasemia: number of subjects: 0
- Hypertriglyceridemia: % of subjects: (2.3%)
- Hypertriglyceridemia: number of subjects: 1
- Hypoacusis: number of subjects: 0
- Immune system disorders: number of subjects: 0
- Influenza like illness: number of subjects: 0
- Insomnia: number of subjects: 0
- Intertrigo: number of subjects: 0
- Ketonuria: number of subjects: 0
- Leukocyturia: number of subjects: 0
- Leukopenia: number of subjects: 0
- Libido decreased: number of subjects: 0
- Liver disorder: number of subjects: 0
- Lymphopenia: number of subjects: 0
- Menopause: number of subjects: 0
- Metabolism and nutrition disorders: % of subjects: (4.7%)
- Metabolism and nutrition disorders: number of subjects: 2
- Neoplasms benign, malignant and unspecified (incl cysts and polyps): number of subjects: 0
- Nephrolithiasis: number of subjects: 0
- Neutropenia: number of subjects: 0
- Night sweats: number of subjects: 0
- Non-cardiac chest pain: number of subjects: 0
- Ocular cyst: number of subjects: 0
- Oedema peripheral: number of subjects: 0
- Oropharyngeal pain: number of subjects: 0
- Procedural pain: number of subjects: 0
- Productive cough: number of subjects: 0
- Proteinuria: number of subjects: 0
- Pruritus: number of subjects: 0
- Psoriasis: number of subjects: 0
- Psychiatric disorders: number of subjects: 0
- Pyrexia: % of subjects: (2.3%)
- Pyrexia: number of subjects: 1
- Rash pruritic: number of subjects: 0
- Renal and urinary disorders: % of subjects: (2.3%)
- Renal and urinary disorders: number of subjects: 1
- Renal mass: % of subjects: (2.3%)
- Renal mass: number of subjects: 1
- Respiratory, thoracic and mediastinal disorders: % of subjects: (2.3%)
- Respiratory, thoracic and mediastinal disorders: number of subjects: 1
- Retinal vein occlusion: number of subjects: 0
- Rhinorrhoea: number of subjects: 0
- Seasonal allergy: number of subjects: 0
- Skin and subcutaneous tissue disorders: % of subjects: (7.0%)
- Skin and subcutaneous tissue disorders: number of subjects: 3
- Skin laceration: number of subjects: 0
- Skin papilloma: number of subjects: 0
- Social circumstances: number of subjects: 0
- Steatohepatitis: % of subjects: (2.3%)
- Steatohepatitis: number of subjects: 1
- Subjects with 1 or more treatment-emergent serious adverse events: 0
- Subjects with AE leading to discontinuation: Abdominal discomfort: 0
- Subjects with AE leading to discontinuation: Abdominal pain: 0
- Subjects with AE leading to discontinuation: Asthenia: 0
- Subjects with AE leading to discontinuation: Chills: 0
- Subjects with AE leading to discontinuation: Ear and labyrinth disorders: 0
- Subjects with AE leading to discontinuation: Gastrointestinal disorders: 0
- Subjects with AE leading to discontinuation: General disorders and administration site conditions: 0
- Subjects with AE leading to discontinuation: Headache: 0
- Subjects with AE leading to discontinuation: Insomnia: 0
- Subjects with AE leading to discontinuation: Nausea: 0
- Subjects with AE leading to discontinuation: Nervous system disorders: 0
- Subjects with AE leading to discontinuation: Proctalgia: 0
- Subjects with AE leading to discontinuation: Psoriasis: 0
- Subjects with AE leading to discontinuation: Psychiatric disorders: 0
- Subjects with AE leading to discontinuation: Skin and subcutaneous tissue disorders: 0
- Subjects with AE leading to discontinuation: Suicide attempt: 0
- Subjects with AE leading to discontinuation: Vertigo: 0
- Subjects with AE leading to discontinuation: Vomiting: 0
- Subjects with COVID-19 associated AE: SARS-CoV-2 test positive: 0
- Subjects with treatment-emergent AE: Influenza: 0
- Subjects with treatment-emergent serious AE: COVID-19: 0
- Subjects with treatment-emergent serious AE: Cardiac disorders: 0
- Subjects with treatment-emergent serious AE: Cerebrovascular accident: 0
- Subjects with treatment-emergent serious AE: Coronary artery disease: 0
- Subjects with treatment-emergent serious AE: Diverticulitis: 0
- Subjects with treatment-emergent serious AE: Foot deformity: 0
- Subjects with treatment-emergent serious AE: General disorders and administration site conditions: 0
- Subjects with treatment-emergent serious AE: Infected cyst: 0
- Subjects with treatment-emergent serious AE: Infections and infestations: 0
- Subjects with treatment-emergent serious AE: Injury, poisoning and procedural complications: 0
- Subjects with treatment-emergent serious AE: Intervertebral disc protrusion: 0
- Subjects with treatment-emergent serious AE: Ligament injury: 0
- Subjects with treatment-emergent serious AE: Musculoskeletal and connective tissue disorders: 0
